Measurements reported in article PMC10850501 (Nature Communications, 2024).
Read-outs that look alike come from different tables or passages of the source. Peptide text beside a SMILES is read from it.

Tests used:
[1] = Ultracentrifugation pellet / solid-state NMR of assemblies; assay type: physicochemical; settings: 10 mg/mL, 150,000 RCF, 30 minutes, 4 °C
Experimental: To experimentally validate E1:ESBP3 peptide mixtures, solid-state NMR experiments were pursued. ^13C solid-state NMR measurements were conducted using cross-polarization magic angle spinning (^1H-^13C CPMAS) to evaluate sample structural order and structural differences between samples. The peptides were not isotopically enriched, so the ^13C signal was from the 1% natural abundance for ^13C.
After peptide dissolution at 10 mg/mL, the samples were concentrated by ultracentrifugation for 30 minutes in Bruker 3.22 mm NMR rotors at 4 °C and 150,000 RCF in Ultra-clear tubes of SW-41 Ti swinging bucket rotor fitted onto a Beckman Optima XPN-100 centrifuge. A 11.75 T magnet Bruker Avance III HD 500 spectrometer (500 MHz, ^1H NMR Larmor frequency) equipped with a room temperature 3.2 mm Bruker Low-E ^1H/^13C/^15N NMR probe was used for measurements. ^13C chemical shift referencing was conducted using adamantane referenced to tetramethylsilane. 1D ^13C cross-polarization magic angle spinning (CPMAS) spectra were collected using the standard Bruker cp pulse sequence. A 10 kHz magic angle spinning speed was used for all samples. The channels frequency for the optimization of the Hartmann-Hahn condition for ^1H and ^13C are 500.133 MHz and 125.771 MHz, respectively. A recycle delay time of 4 seconds (d1) and dwell time of 5 μs (DW) were used. Acquisition time was set to 10.24 ms. […]

[2] = tested on: SARS-CoV-2 live virus (B.1 lineage), Vero E6 cells; assay type: cell-based
Cytocompatibility (CCK8) = assay type: cell-based, human; settings: human, A549 cells, read-out: cytocompatibility, normalized to serum free media; for viability at 6 h, 10 µM: 0.01 mM peptide; for viability at 6 h, 100 µM: 0.1 mM peptide; for viability at 6 h, 1000 µM: 1 mM peptide
Experimental: Cytocompatibility of the peptides was evaluated at 1, 0.1, and 0.01 mM with A549 cells (ATCC CCL-185) cultured in complete media consisting of 90% F-12K and 10% FBS. The A549 cells were utilized after their first passage and seeded at 10,000 cells/well in a 96-well plate for 24 hours. The conditions were prepared in serum-free A549 media and introduced into the wells for 6 hours, after which the condition media were aspirated, the wells were washed once with PBS, and 10 µL of CCK8 was added to 100 µL of PBS[32]. The plate was incubated for 1 hour and read on a Tecan M200 Infinite plate reader at an absorbance of 450 nm with a reference wavelength of 650 nm. The results were analyzed and normalized to the serum-free media control[28],[32],[76].

[3] = molecular target: the molecule itself; assay: co-sedimentation + other: solid-state NMR (1H-13C CPMAS)

Row | Molecule | ultracentrifuge pellet (assembly into nanofibers) [1] | Comparative, Average [2] | live virus plaque inhibition, in words [2] | viability at 6 h, 10 µM (Cytocompatibility (CCK8); replicate 1, CCK8, 6 h) [%] | viability at 6 h, 10 µM (Cytocompatibility (CCK8); replicate 2, CCK8, 6 h) [%] | viability at 6 h, 100 µM (Cytocompatibility (CCK8); replicate 1, CCK8, 6 h) [%] | viability at 6 h, 100 µM (Cytocompatibility (CCK8); replicate 2, CCK8, 6 h) [%] | viability at 6 h, 100 µM (Cytocompatibility (CCK8); replicate 3, CCK8, 6 h) [%] | viability at 6 h, 1000 µM (Cytocompatibility (CCK8); replicate 1, CCK8, 6 h exposure, absorbance 450 nm) [%] | viability at 6 h, 1000 µM (Cytocompatibility (CCK8); replicate 2, CCK8, 6 h) [%] | viability at 6 h, 1000 µM (Cytocompatibility (CCK8); replicate 3, CCK8, 6 h) [%] | binding result [3]
1 | CC(=O)N[C@@H](CCC(=O)O)C(=O)N[C@@H](CO)C(=O)N[C@@H](CC(C)C)C(=O)N[C@@H](CO)C(=O)N[C@@H](CC(C)C)C(=O)N[C@@H](CO)C(=O)N[C@@H](CC(C)C)C(=O)N[C@@H](CO)C(=O)N[C@@H](CC(C)C)C(=O)N[C@@H](CO)C(=O)N[C@@H](CC(C)C)C(=O)N[C@@H](CO)C(=O)N[C@@H](CC(C)C)C(=O)N[C@@H](CCC(=O)O)C(N)=O [E1] (Ac-ESLSLSLSLSLSLE-NH2) | centrifuge pellets | 65.5306 | no major differences | 117 | 122 | 111 | 147 | 117 | 169 | 195 | 139 | –
2 | Ac-ESLSLSLSLSLSLE-NH2 (also called E-(SL)6-E; E-flanked SAP) [E1 self-assembling peptide (E-SLSLSLSLSLSL-E)] | – | – | – | – | – | – | – | – | – | – | – | binds
